The assay deals with T1, Fatty acid-binding protein, liver (Mus musculus, UniProt P12710).
T1 sequence (P12710 whole entry): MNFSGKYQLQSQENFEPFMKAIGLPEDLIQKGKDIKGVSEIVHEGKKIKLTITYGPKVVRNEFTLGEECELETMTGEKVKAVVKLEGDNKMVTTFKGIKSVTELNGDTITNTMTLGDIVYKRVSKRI
Put plainly: FABP1 Fluorescent Ligand Displacement Assay. The source says:
Data were corrected for the following blanks/controls: protein only, fluorescent ligand only, fluorescent ligand with anincreasing amount of nonfluorescent ligand, and photobleaching.

Each structure is given as a SMILES string. “And” between values parts separate entries of the source, which are not always exact repeats. Identical values can stand only once.

The results in this text go back to BindingDB's records for doi:10.1021/acs.biochem.6b00446 (Avanti Polar Lipids, 2016).

On to `CCCCCCC(C)(C)c1ccc([C@@H]2C[C@H](O)CC[C@H]2CCCO)c(O)c1` [ChEMBL_75020], for which the affinity, expressed as Ki, was 0.99 µM.

As for `COc1cc([N+](=O)[O-])cc2c1NC(c1ccc(Br)cc1)=NO2` [SCPI3], the Ki was 0.9 µM. The Ki values of the last two compounds are within 1.5-fold of each other. On to `CCCCCn1cc(C(=O)c2cccc3ccccc23)c2ccccc21` [JWH-018], for which the inhibition constant Ki was 0.058 µM. Turning to `CCCCCCCC/C=C\CCCCCCCC(=O)N[C@@H](CO)Cc1ccc(O)cc1` [OMDM2], the inhibitory constant (Ki) was determined as 0.04 µM. This Ki and that of the compound before are within 1.5-fold of each other. The value for `CCCCCC=CCC=CCC=CCC=CCCCC(=O)Nc1ccc(O)cc1C` [VDM11] was 0.037 µM; that for `C=C(C)[C@@H]1CCC(C)=C[C@H]1c1c(O)cc(CCCCC)cc1O` [2-(6-Isopropenyl-3-methyl-cyclohex-2-enyl)-5-pentyl-benzene-1,3-diol (Cannabidiol)] was 0.167 µM. To `CCCCC/C=C\C/C=C\C/C=C\C/C=C\CCCC(=O)Nc1ccc(O)cc1` belongs 0.029 µM; to `CCC=CCC=CCC=CCC=CCC=CCC=CCCC(=O)NCCO` [Docosahexaenoylethanolamide (DHEA)], 0.163 µM. The value for `CC(=O)Nc1ccc(Nc2nc(-c3ccc(Cl)c(Cl)c3)cs2)cc1` [SCPI1] was 0.35 µM; that for `CCCCC/C=C\C/C=C\C/C=C\C/C=C\CCCC(=O)OC(CO)CO` was 0.061 µM; that for `Cc1c(C(=O)NN2CCCCC2)nn(-c2ccc(Cl)cc2Cl)c1-c1ccc(Cl)cc1` [SR141716] was 2 µM. `CCCCCCC(C)(C)c1cc(O)c2c(c1)OC(C)(C)[C@@H]1CC=C(CO)C[C@@H]21` [(6aR,10aR)-3-(1,1-dimethyl-heptyl)-9-hydroxymethyl-6,6-dimethyl-6a,7,10,10a-tetrahydro-6H-benzo[c]chromen-1-ol] displayed a Ki of 0.85 µM. As to `CCc1c(-c2ccccc2)c(-c2ccccc2)nn1-c1ccccc1-c1cccc(OCC(=O)O)c1` [((2'-(5-ETHYL-3,4-DIPHENYL-1H-PYRAZOL-1-YL)-3-BIPHENYLYL)OXY)ACETIC ACID], the Ki is 0.021 µM and 0.052 µM. The value for `CCCCCCCC/C=C\CCCCCCCC(=O)NCCO` [Oleamide MEA] was 0.043 µM; that for `Cc1ccc2c(c1)-c1c(ssc1=S)C(C)(C)N2C(=O)CC(C)C` [SCPI4] was 0.033 µM. The value for `CCCCCc1cc(O)c2c(c1)OC(C)(C)[C@@H]1CCC(C)=C[C@@H]21` [(10R,10aR)-6,6,9-Trimethyl-3-pentyl-6a,7,8,10a-tetrahydro-6H-benzo[c]chromen-1-ol] was 1 µM; that for `CCCCCCCC/C=C\CCCCCCCC(=O)N[C@H](CO)Cc1ccc(O)cc1` [OMDM1] was 0.04 µM; that for `CCCCCCCCCCCCCCCC(=O)OC(CO)CO` [2-Palmitoylmonoglycerol (2-PG)] was 0.07 µM. `CCCCCCCC/C=C\CCCCCCCC(=O)OC(CO)CO` [2-Oleoylmonoglycerol (2-OG)] came in with an inhibition constant Ki of 0.04 µM.

A word on the Ki: it is the dissociation constant of the complex between target and ligand, obtained from inhibition or displacement. Read a low Ki as tighter binding.
